Earlier results, collected in patent US8211048B2 (Henry Ford Health System, priority 2006, dated 2012).
Where two headings read alike, the source gives them in different places.

Question: With `O=C(O)CC(O)(CC(=O)O)C(=O)O` [Citrate] as the compound, how does the pKa2 (25 C) read?
Answer: The pKa2 was 4.76.

Question: And the pKa3 (25 C)?
Answer: Its pKa3 is 6.40.

Question: And the pKa3 (as given for pre-filter fluid pH)?
Answer: The pKa3 was 6.3.
